Read-outs that look alike come from different tables or passages of the source.
What was measured:
KRAS^G12C/SOS1 = target: T1, KRAS^G12C/SOS1 (Homo sapiens, UniProt P01116, G12C); test: KRAS^G12C/SOS1 protein-protein interaction Binding assay (CisBio kit); conditions: class symbols
T1 construct: purchased CisBio
Experimental: CisBio’s KRAS^G12C/SOS1 kit was used to test the efficacy of the compound on inhibiting the protein-protein interaction between SOS1 and KRAS^G12Cby Binding assay.Results were expressed as IC50values.
Test methods: (1) the test compound was tested at a concentration of 1000 nM. Diluted to 3-fold diluted compound of a 200-fold final concentration of 100% DMSO solution in a 384-well plate at 10 concentrations. 50 nL of 200-fold final concentration of compound was transferred to the destination plate 384 well plate using a dispenser Echo 550.50 nL of 100% DMSO was added to the negative control wells and positive control wells; (2) 4-fold final concentration of Tag1 SOS1 solution was prepared using Diluent buffer; (3) 2.5 µL of 4-fold final concentration of Tag1 SOS1 solution was added to the 384-well plate; (4) 4-fold final concentration of Tag2 KRAS^G12C solution was prepared using Diluent buffer; (5) 2.5 µL of 4-fold final concentration of Tag2 KRAS^G12C solution was added to compound wells and positive control wells, respectively; 2.5 µL of diluent buffer was added to negative control wells; (6) the 384-well plate was centrifuged at 1000 rpm for 30 seconds, shaken and mixed, and incubated at room temperature for 15 min; (7) 1-fold final concentration of Anti Tag1 TB3+ solution and 1-fold final concentration of Anti Tag2 XL665 solution were prepared with Detection buffer, and 5 µL of the mixture was added to each well after mixing the two solutions; (8) the 384-well plate was centrifuged at 1000 rpm for 30 seconds, shaken and mixed, and incubated at room temperature for 120 minutes; (9) the Envision enzyme marker was used to read
Em665/620; (10) data analysis, calculation formula; where Min signal is the mean value of negative control wells, Max signal is the mean value of positive control wells.The log value of concentration was used as the X-axis and the percentage inhibition as the Y-axis to fit the quantitative efficacy curve using the log(inhibitor) vs. response Variable slope of the quantitative efficacy curve of the analytical software GraphPad Prism 5 to derive the IC50 value of each compound on the enzyme activity.The fitting formula was: Y=Bottom+(Top Bottom)/(1+10^A((LogIC50X)^∗ HillSlope)).

[1] = tested on: MiaPaca-2 cells (pancreatic cancer); test: Proliferation test method 1 (2D, MTT), MiaPaca-2; type: cell-based; conditions: 5-7 days, read-out: IC50/nM proliferation inhibitory activity on MiaPaca-2 cells
Experimental: (§1) Test method 1 (2D):NCI-H358 (lung cancer) and MiaPaca-2 cells (pancreatic cancer) cells (100 µL/well, 20,000 cells/mL) were inoculated in 96-well culture plates supplemented with 10% fetal bovine serum and 1% penicillin/streptomycin sulfate, respectively.Using 0.5% dimethyl sulfoxide as a blank control, cells were treated with a solution of the compound to be tested at a starting concentration of 10 µM, tripled diluted testing solution of the compound in eight gradients were used to treat cells, and then incubated in a 5% CO2 incubator for a certain period of time (5-7 days).At the end of incubation, 10 µL of MTT stock solution (5 mg/mL) was added to each well.The culture plates were incubated at 37° C. for 4 h and then the medium was removed.Dimethyl sulfoxide (100 µL) was added to each well and then shaken sufficiently. The absorbance of the product formazanwas measured at 570 nm on the Thermo Scientific Varioskan Flash multimode reader.IC50 values were obtained by fitting dose-response data into a three-parameter nonlinear regression model using GraphPad Prism 6.0 software.

[2] = tested on: NCI-H358 (lung cancer) cells; test: Proliferation test method 1 (2D, MTT), NCI-H358; type: cell-based; conditions: Homo sapiens, 5-7 days, read-out: IC50 proliferation inhibitory activity against NCI-H358
Experimental: as §1

[3] = tested on: phosphorylated ERK levels of NCI-H358; test: ERK phosphorylation (western blot), H358; type: cell-based; conditions: Homo sapiens, 3 h
Experimental: (§2) Test method 3 (ERK phosphorylation): Miapaca-2 or H358 cells were inoculated at certain concentrations in 96-well plates and incubated overnight at 37° C., 5% CO2 in a cell culture incubator, and serial dilutions of the test compound (5 concentrations, 3-fold dilution) were added to the plates the next day for 24 h (Miapaca-2) or 3 h (H358), then lysis solution containing protease and phosphatase inhibitor were added to lyse the cells to extract proteins and western blot method was used to detect the level of p-ERK.

[4] = tested on: phosphorylated ERK levels of MiaPaca-2; test: ERK phosphorylation (western blot), MiaPaca-2; type: cell-based; conditions: Homo sapiens, MIA PaCa-2, 24 h
Experimental: as §2

MiaPaca-2 cells = test: Proliferation test method 2 (3D, Cell Titer Glo 3D), MiaPaca-2; type: cell-based; conditions: Homo sapiens, MIA PaCa-2, 96 h, read-out: IC50 cell proliferation inhibitory activity against MiaPaca-2
Experimental: (§3) Test method 2 (3D): The tumor cells in the logarithmic growth phase were diluted with culture solution to a certain concentration and inoculated on the 96-well plate on the ultra-low attachment surface, and the culture medium was 80 µL/well. Cells were incubated overnight at 37° C. in a humidity chamber. On the second day, a series of diluted test compounds (10 concentrations, 3 times dilution) were added to the plate, 20 µL/well, incubated in an incubator for 96h.The plates are removed and placed at room temperature and incubated with an equal volume of Cell Titer Glo®3D reagent for 1 h. The signal is detected by the En Vision™ plate reader. […] A four-parameter nonlinear regression curve was fitted to the percent inhibition for each concentration of the compound and the IC50 was calculated.

NCI-H358 cells = test: Proliferation test method 2 (3D, Cell Titer Glo 3D), NCI-H358; type: cell-based; conditions: Homo sapiens, NCI-H358, 96 h, read-out: IC50 cell proliferation inhibitory activity against NCI-H358
Experimental: as §3

T1 sequence (P01116 1-188 isoform P01116-2 G12C): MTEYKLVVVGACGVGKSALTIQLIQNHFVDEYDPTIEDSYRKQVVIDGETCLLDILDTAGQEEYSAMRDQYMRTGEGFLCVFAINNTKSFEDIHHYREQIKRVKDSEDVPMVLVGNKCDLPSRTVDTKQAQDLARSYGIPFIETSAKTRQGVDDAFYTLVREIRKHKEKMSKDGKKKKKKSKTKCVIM

| IC50 (KRAS^G12C/SOS1) | IC50 ([1]; Homo sapiens, MIA PaCa-2, 2D) | SMILES | other results |
| --- | --- | --- | --- |
| 50 to 200 nM | 0.93 nM | C=CC(=O)N1CCN(c2c(C#N)c(NCCC(=O)N(C)C)nc3c(F)c(-c4ccc(F)c5sc(N)nc45)c(Cl)cc23)CC1 [Example 22, 3-((4-(4-Acryloylpiperazin-1-yl)-7-(2-Amino-7-Fluorobenzo [d] Thiazol-4-yl)-6-Chloro-3-Cyano-8-Fluoroquinolin-2-yl) Amino)-N,N-Dimethylpropanamide] | – |
| < 50 nM | – | C=CC(=O)N1CCN(c2nc(OC[C@@H]3C[C@@H](F)CN3C)nc3c(F)c(-c4ccc(F)c5sc(N)nc45)c(Cl)cc23)CC1 [Example 27] | IC50 ([1]; 2D): < 1 nM |
| 50 to 200 nM | 362 nM | C=C(F)C(=O)N1CCN(c2c(C#N)cnc3c(F)c(-c4ccc(F)c5sc(N)nc45)c(Cl)cc23)CC1 [Example 9, 7-(2-Amino-7-Fluorobenzo [d] Thiazol-4-yl) -6-Chloro-8-Fluoro-4-(4-(2-Fluoroacryloyl) Piperazin-1-yl) Quinolin-3-Cyano] | – |
| > 1000 nM | – | C=CC(=O)N1CC2C(=O)N(C)c3cnc4c(F)c(-c5c(O)cccc5F)c(Cl)cc4c3N2CC1C (single isomer, unassigned) [Comparative Compound 2-2, reference compound] | – |
| < 50 nM | – | C=CC(=O)N1CCN(c2nc(OC[C@@H]3C[C@H](F)CN3C)nc3c(F)c(-c4ccc(F)c5sc(N)nc45)c(Cl)cc23)CC1 [Example 25] | IC50 [2]: < 100 nM; IC50 [3]: < 500 nM; IC50 [4]: < 500 nM |
| 50 to 200 nM | 28 nM | C=CC(=O)N1CCN(c2nc(NCCC(=O)N(C)C)nc3c(F)c(-c4ccc(F)c5sc(N)nc45)c(Cl)cc23)CC1 [Example 19, 3-((4-(4-Acryloylpiperazin-1-yl)-7-(2-Amino-7-Fluorobenzo [d] Thiazol-4-yl)-6-Chloro-8-Fluoroquinazolin-2-yl) Amino)-N,N-Dimethylpropanamide] | – |
| < 50 nM | 1.1 nM | C=CC(=O)N1CCN(c2c(C#N)c(NC[C@@H]3CCCN3C)nc3c(F)c(-c4ccc(F)c5sc(N)nc45)c(Cl)cc23)CC1 [Example 4, 4-(4-Piperazinylacryloylpiperazin-1-yl)-7-(2-Amino-7-Fluorobenzo[d]Thiazol-4-Yl)-6-Chloro-8-Fluoro-2-((((S)-1-Methylpyrrolin-2-yl)Methyl)Amino)Quinoline-3-Cyano] | – |
| < 50 nM | < 1 nM | C=CC(=O)N1CCN(c2nc(OC[C@@H]3C[C@@H](O)CN3C)nc3c(F)c(-c4ccc(F)c5sc(N)nc45)c(Cl)cc23)CC1 [Example 24, 1-(4-(7-(2-Amino-7-Fluorobenzo[d]Thiazol-4-yl)-6-Chloro-8-Fluoro-2-(((2S,4R)-4-Hydroxy-1-Methylpyrrolin-2-yl) Methoxy) Quinazolin-4-yl) Piperazin-1-yl) Prop-2-En-1-One] | – |
| 50 to 200 nM | 19.3 nM | C=CC(=O)N1CCN(c2nc(OC[C@@H]3CCCN3C)nc3c(F)c(-c4ccc(F)c5sc(N)nc45)c(Cl)cc23)CC1CC#N (stereo partly drawn) [Example 12, 2-(1-acryloyl-4-(7-(2-Amino-7-Fluorobenzo [d] Thiazol-4-yl) -6-Chloro-8-Fluoro-2-(((S)-1-Methylpyrrolidin-2-yl) Methoxy) Quinazolin-4-yl) Piperazin-2-yl) Acetonitrile] | – |
| < 50 nM | – | C=CC(=O)N1CCN(c2nc(OCCN(C)C)nc3c(F)c(-c4ccc(F)c5sc(N)nc45)c(Cl)cc23)CC1 [Example 5] | IC50 [2]: < 100 nM; IC50 [3]: < 500 nM; IC50 (MiaPaca-2 cells): < 200 nM; IC50 [4]: < 500 nM; IC50 (NCI-H358 cells): < 200 nM |
| 50 to 200 nM | – | C=CC(=O)N1CCN(c2c(C#N)cnc3c(F)c(-c4ccc(F)c5sc(N)nc45)c(Cl)cc23)C[C@H]1C [Example 16, 4-((R)-4-Acryloyl-3-Methylpiperazin-1-yl)-7-(2-Amino-7-Fluorobenzo [d] Thiazol-4-yl)-6-Chloro-8-Fluoroquinolin-3 -Cyano] | IC50 [2]: < 100 nM; IC50 [3]: < 500 nM; IC50 (MiaPaca-2 cells): < 200 nM; IC50 [4]: < 500 nM; IC50 (NCI-H358 cells): < 200 nM |
| 200 to 1000 nM | 390 nM | C=CC(=O)N1CCN(c2c(C#N)cnc3c(F)c(-c4ccc(F)c5sc(N)nc45)c(Cl)cc23)CC1CC#N (centres unmarked) [Example 15, 4-(4-Acryloyl-3-(Cyanomethyl) Piperazin-1-yl)-7-(2-Amino-7-Fluorobenzo [d] Thiazol-4-yl)-6-Chloro-8-Fluoroquinolin-3-Cyano] | – |
| 50 to 200 nM | 35 nM | C=CC(=O)N1CCN(c2nc(Cl)nc3c(F)c(-c4ccc(F)c5sc(N)nc45)c(Cl)cc23)CC1 [Example 6, 1-(4-(7-(2-Amino-7-Fluorobenzo [d] Thiazol-4-yl)-2,6-Dichloro-8-Fluoroquinazolin-4-yl) Piperazin-1-yl) Prop-2-Ene-1-One] | – |
| 50 to 200 nM | 23.1 nM | C=CC(=O)N1CCN(c2c(C#N)c(Cl)nc3c(F)c(-c4ccc(F)c5sc(N)nc45)c(Cl)cc23)CC1 [Example 7] | – |
| 50 to 200 nM | 63.2 nM | C=C(F)C(=O)N1C[C@@H]2C(=O)N(C)c3cnc4c(F)c(-c5ccc(F)c6sc(N)nc56)c(Cl)cc4c3N2C[C@H]1C [Example 28, (2R,4aR)-10-(2-Amino-7-Fluorobenzo[d]Thiazol-4-yl)-11-Chloro-9-Fluoro-3-(2-Fluoroacryloyl)-2,6-Dimethyl-2,3,4,4a-Tetrahydro-1H-Pyrazin [1′,2′:4,5] Pyrazin [2,3-c] Quinolin-5(6H)-one] | – |
| < 50 nM | 13.2 nM | C=CC(=O)N1CCN(c2nc(NC[C@@H]3CCCN3C)nc3c(F)c(-c4ccc(F)c5sc(N)nc45)c(Cl)cc23)CC1 [Example 2, 1-(4-(7-(2-Amino-7-Fluorobenzo[d]Thiazol-4-yl)-6-Chloro-8-Fluoro-2-((((S)-1-Methylpyrrolidin-2-yl)Methyl)Amino)Quinazolin-4-yl)Piperazin-1-yl)Prop-2-En-1-One] | IC50 (MiaPaca-2 cells): < 200 nM; IC50 (NCI-H358 cells): < 200 nM |
| – | – | C=CC(=O)N1C[C@@H]2C(=O)N(C)c3cnc4c(F)c(-c5ccc(F)c6sc(N)nc56)c(Cl)cc4c3N2C[C@H]1C (single isomer, unassigned) [Example 17-2] | IC50 ([1]; 2D): 23.1 nM |

— patent US20230174526A1, “BENZOTHIAZOLYL BIARYL COMPOUND, AND PREPARATION METHOD AND USE” (SHANGHAI RINGENE BIOPHARMA CO., LTD., priority 2020, published 2023)
